Experimental data published in ChEMBL document CHEMBL1201862, “PubChem BioAssay data set” (2004).
Blank lines part the entries; values can stand above or below the compound they belong to. Calls of active or inactive are those of the source.

Assays:
Beta-galactosidase = Beta-galactosidase (Escherichia coli, UniProt Q8VNN2); experiment: PubChem AID 485352; type: functional
[1] = biological target: T1, Type-1 angiotensin II receptor (Homo sapiens, UniProt P30556); experiment: AT1 receptor antagonists, dose response, selectivity assay for APJ receptor antagonist project, cell-based, uHTS hits (AID 463214); type: functional;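 note: antagonist potency against angiotensin II stimulated AT1 response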
T1 sequence (P30556 whole entry): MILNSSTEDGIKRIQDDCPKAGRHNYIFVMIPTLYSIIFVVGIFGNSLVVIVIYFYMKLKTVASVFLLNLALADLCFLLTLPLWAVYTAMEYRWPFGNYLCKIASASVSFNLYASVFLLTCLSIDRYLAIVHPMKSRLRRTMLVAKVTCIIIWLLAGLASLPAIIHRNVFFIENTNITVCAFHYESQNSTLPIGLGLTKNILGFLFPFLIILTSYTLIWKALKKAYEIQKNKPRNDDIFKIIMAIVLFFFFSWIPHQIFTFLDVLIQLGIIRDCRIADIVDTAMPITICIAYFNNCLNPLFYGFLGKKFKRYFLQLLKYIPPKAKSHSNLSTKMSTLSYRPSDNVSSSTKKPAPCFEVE

[2] = Shn3 3'UTR reporter inhibitors, dose response, cell-based, Clone20 osteoblasts, firefly luciferase, cherry-picked (AID 624132); type: functional;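 note: firefly luciferase luminescence from reporter carrying the Shn3 3'UTR in osteoblasts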
[3] = HepG2 cell cytotoxicity, dose response, cytotoxicity control for Shn3 inhibitor project, CellTiter-Glo, cherry-picked (AID 624134); type: functional, cell-based
[4] = Fluorescence-based cell-based high throughput dose response assay for inhibitors of the interaction of nucleotide-binding oligomerization domain containing 2 (NOD2) and the receptor-interacting serine-threonine kinase 2 (RIPK2).; type: functional; conditions: Homo sapiens
HEK293 [5] = experiment: cells; conditions: Homo sapiens
HEK293 [6] = experiment: cells; conditions: Homo sapiens; remark: listed apart in the source
A-375 = experiment: A375 melanoma cell viability reduction, dose response, counter-screen for MITF modulator project, cherry-pick samples, set 2 (AID 540335); type: functional, cell-based; conditions: Homo sapiens
[7] = biological target: T2, Short transient receptor potential channel 4 (Mus musculus, UniProt Q9QUQ5); experiment: mouse TRPC4 channel activators, dose response, cell-based, HEK293 TRPC4/mu-opioid, Fluo-4 calcium (AID 434937); type: functional
T2 sequence (Q9QUQ5 whole entry): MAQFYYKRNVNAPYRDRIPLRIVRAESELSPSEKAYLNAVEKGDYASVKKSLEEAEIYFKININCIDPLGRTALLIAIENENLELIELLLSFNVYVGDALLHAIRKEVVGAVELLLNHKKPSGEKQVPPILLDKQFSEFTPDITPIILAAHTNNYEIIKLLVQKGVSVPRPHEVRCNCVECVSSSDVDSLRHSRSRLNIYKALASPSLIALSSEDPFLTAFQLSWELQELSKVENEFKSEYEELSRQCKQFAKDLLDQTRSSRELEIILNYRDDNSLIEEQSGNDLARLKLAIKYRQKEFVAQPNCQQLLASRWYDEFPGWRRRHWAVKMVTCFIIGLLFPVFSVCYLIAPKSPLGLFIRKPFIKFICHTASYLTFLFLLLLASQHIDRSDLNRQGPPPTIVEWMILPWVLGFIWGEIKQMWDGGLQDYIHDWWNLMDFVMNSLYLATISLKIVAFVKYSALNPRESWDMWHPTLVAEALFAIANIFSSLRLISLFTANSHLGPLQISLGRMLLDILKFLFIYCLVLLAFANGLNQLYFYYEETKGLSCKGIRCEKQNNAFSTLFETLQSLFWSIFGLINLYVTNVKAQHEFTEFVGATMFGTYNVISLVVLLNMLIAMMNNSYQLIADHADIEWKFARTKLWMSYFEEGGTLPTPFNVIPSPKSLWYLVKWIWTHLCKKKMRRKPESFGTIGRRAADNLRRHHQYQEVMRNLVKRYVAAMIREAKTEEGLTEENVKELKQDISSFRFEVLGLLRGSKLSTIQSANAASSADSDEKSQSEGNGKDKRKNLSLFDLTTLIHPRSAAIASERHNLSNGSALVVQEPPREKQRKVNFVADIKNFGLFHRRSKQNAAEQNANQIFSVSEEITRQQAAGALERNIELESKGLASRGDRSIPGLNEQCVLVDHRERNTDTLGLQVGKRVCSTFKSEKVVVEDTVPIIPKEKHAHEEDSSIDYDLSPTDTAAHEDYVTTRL

[8] = biological target: Delta-type opioid receptor (Homo sapiens, UniProt P41143); experiment: Counterscreen for agonists of heterodimerization of the mu 1 (OPRM1) and delta 1 (OPRD1) opioid receptors: Luminescence-based cell-based high throughput dose response assay to identify agonists of OPRD1 homodimerization. [Related pubchem assays (depositor defined):AID504326, AID504355, AID504692, AID504904, AID504905]; type: functional
Chain of Delta-type opioid receptor (P41143 whole entry): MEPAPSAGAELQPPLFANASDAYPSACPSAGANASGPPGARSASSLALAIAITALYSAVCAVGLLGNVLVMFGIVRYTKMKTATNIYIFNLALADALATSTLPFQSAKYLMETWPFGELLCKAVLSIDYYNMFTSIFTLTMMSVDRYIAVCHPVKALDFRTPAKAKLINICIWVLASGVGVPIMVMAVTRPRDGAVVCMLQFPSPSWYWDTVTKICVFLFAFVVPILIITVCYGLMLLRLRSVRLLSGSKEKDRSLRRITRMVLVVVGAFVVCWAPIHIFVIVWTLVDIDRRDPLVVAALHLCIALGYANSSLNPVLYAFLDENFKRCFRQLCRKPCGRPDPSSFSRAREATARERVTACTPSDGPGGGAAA

Mu-type opioid receptor = Mu-type opioid receptor (Homo sapiens, UniProt P35372); experiment: Counterscreen for agonists of heterodimerization of the mu 1 (OPRM1) and delta 1 (OPRD1) opioid receptors: Luminescence-based cell-based high throughput dose response assay to identify agonists of OPRM1 homodimerization.; type: functional;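 note: U2OS cells expressing OPRM1 and beta-arrestin as split beta-galactosidase partners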
Chain of Mu-type opioid receptor (P35372 whole entry): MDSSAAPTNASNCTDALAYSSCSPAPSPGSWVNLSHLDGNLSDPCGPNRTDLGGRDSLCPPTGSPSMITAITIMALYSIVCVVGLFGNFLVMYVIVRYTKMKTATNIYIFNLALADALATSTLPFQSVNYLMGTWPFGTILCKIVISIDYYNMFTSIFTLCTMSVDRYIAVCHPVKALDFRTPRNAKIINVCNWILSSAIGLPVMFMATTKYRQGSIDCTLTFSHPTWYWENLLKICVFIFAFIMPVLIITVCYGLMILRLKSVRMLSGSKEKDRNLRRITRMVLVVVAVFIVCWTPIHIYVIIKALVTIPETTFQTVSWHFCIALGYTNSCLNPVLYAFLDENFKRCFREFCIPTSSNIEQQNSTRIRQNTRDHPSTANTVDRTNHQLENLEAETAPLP

[9] = biological target: 5-hydroxytryptamine receptor 5A (Homo sapiens, UniProt P47898); experiment: Counterscreen for agonists of OPRM1-OPRD1 heterodimerization: luminescence-based cell-based high throughput dose response assay to identify agonists of 5-hydroxytryptamine (serotonin) 5A receptor (HTR5A). [Related pubchem assays (depositor defined):AID504326, AID504355, AID504692, AID504904, AID504905]; type: functional
Chain of 5-hydroxytryptamine receptor 5A (P47898 whole entry): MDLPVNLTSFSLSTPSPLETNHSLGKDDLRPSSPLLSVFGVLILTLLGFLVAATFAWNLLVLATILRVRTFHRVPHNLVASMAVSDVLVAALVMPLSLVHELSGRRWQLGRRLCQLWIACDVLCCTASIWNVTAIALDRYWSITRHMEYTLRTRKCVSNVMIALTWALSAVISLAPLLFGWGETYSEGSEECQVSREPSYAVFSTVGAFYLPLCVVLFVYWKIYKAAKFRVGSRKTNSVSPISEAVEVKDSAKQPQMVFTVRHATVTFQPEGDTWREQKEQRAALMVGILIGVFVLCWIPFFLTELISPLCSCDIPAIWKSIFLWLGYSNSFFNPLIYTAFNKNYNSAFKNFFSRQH

Hexokinase-1 = biological target: T3, Hexokinase-1 (Homo sapiens, UniProt P19367); experiment: HK1 enzyme inhibition by HKDC1 hits, SAR follow-up, selectivity assay for HKDC1 inhibitor project, biochemical, set 2, resazurin fluorescence coupled readout (AID 588356); type: functional
T3 sequence (P19367 whole entry): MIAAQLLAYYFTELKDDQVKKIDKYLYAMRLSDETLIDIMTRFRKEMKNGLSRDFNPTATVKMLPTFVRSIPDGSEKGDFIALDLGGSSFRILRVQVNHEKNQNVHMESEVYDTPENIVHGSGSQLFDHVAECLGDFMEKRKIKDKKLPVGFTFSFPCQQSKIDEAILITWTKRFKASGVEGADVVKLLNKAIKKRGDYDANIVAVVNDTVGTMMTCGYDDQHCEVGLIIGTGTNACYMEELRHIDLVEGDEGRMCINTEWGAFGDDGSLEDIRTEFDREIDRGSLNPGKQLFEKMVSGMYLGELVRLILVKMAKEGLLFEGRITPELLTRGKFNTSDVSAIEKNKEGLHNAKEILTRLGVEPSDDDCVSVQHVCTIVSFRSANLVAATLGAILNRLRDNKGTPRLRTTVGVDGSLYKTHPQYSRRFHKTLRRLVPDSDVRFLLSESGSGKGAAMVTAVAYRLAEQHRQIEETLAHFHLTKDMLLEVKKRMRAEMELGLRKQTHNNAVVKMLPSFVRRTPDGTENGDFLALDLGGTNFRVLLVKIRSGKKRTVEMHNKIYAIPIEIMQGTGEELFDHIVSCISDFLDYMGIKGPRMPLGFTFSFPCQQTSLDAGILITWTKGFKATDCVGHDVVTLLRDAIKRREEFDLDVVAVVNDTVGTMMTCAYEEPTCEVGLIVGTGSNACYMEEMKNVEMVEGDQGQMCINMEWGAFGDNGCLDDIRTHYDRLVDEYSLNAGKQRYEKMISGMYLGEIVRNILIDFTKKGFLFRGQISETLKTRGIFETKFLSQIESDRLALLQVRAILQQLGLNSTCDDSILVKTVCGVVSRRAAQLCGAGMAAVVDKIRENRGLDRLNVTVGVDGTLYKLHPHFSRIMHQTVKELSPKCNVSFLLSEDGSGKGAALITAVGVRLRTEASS

Hexokinase HKDC1 = biological target: T4, Hexokinase HKDC1 (Homo sapiens, UniProt Q2TB90); experiment: HKDC1 hexokinase inhibitors, SAR follow-up, biochemical, set 2 (AID 588355); type: functional
T4 sequence (Q2TB90 whole entry): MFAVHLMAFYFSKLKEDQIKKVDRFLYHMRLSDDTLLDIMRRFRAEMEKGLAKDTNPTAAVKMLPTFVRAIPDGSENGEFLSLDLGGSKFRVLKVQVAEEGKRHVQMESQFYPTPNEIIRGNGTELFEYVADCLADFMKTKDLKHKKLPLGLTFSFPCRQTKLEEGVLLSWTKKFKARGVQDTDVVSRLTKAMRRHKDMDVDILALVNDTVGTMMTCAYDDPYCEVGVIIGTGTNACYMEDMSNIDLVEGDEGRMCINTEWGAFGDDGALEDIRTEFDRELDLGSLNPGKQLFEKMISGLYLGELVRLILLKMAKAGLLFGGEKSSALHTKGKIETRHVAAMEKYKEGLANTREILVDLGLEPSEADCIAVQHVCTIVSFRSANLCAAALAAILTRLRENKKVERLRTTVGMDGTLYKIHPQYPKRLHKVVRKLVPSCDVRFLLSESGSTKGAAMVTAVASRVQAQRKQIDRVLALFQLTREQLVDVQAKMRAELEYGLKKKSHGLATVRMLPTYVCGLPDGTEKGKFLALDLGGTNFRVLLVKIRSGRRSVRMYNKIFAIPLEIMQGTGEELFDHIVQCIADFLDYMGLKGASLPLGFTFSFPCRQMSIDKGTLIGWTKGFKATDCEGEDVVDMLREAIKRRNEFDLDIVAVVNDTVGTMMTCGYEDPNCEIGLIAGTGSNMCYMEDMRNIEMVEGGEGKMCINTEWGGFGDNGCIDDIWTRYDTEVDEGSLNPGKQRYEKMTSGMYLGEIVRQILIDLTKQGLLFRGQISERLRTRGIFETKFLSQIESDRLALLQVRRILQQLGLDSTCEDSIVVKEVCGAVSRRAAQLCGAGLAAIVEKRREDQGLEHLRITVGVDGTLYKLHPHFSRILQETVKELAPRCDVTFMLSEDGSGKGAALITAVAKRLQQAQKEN

[10] = biological target: T2, Short transient receptor potential channel 4; experiment: SAR Analysis for the identification of selective inhibits of the transient receptor potential cation channel C4 (TRPC4): Automated Electrophysiology_2. [Related pubchem assays (depositor defined):AID2256]; type: functional
[11] = biological target: T2, Short transient receptor potential channel 4; experiment: TRPC4 inhibitor concentration-response, dose response, cell-based, HEK293 TRPC4/mu-opioid, DAMGO stimulus, Fluo-4 (AID 492994); type: functional

Chain of Beta-galactosidase (Q8VNN2 whole entry): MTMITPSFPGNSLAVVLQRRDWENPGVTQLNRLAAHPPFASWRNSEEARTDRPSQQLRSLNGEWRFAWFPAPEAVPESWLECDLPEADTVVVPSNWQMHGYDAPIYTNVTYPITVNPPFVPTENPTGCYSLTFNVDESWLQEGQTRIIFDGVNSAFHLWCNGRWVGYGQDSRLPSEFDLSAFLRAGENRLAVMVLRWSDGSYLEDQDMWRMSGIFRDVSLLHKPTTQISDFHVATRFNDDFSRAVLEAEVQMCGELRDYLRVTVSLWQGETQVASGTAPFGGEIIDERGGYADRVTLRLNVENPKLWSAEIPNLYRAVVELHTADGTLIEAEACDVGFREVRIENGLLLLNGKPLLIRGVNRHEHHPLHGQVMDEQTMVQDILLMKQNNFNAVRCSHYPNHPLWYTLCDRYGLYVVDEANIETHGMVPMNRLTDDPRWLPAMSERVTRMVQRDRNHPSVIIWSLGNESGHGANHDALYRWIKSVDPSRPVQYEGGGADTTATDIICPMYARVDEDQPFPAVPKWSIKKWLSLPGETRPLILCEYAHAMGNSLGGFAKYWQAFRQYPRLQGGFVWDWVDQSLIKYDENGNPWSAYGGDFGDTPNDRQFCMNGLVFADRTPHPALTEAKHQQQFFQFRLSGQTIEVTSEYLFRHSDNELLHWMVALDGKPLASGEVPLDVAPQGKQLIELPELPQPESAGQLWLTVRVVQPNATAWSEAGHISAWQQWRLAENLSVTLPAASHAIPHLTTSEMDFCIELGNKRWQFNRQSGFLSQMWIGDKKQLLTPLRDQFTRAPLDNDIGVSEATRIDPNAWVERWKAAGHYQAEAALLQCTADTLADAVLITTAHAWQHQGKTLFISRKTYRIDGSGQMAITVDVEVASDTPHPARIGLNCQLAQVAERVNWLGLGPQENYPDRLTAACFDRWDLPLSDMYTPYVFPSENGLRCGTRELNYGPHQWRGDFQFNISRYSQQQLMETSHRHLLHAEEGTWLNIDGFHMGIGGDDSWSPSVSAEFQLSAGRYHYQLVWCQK

SMILES: Cc1cccc(C(=O)Nc2ccc(C(=O)/C=C/c3ccncc3)cc2)c1
EC50 (Beta-galactosidase): > 40 µM (inactive)
IC50 [1]: 9.71 µM (active)
AC50 [2]: 3.41 µM (active)
AC50 [3]: 36.4 µM (active)
IC50 [4]: 3.51 µM (active)
EC50 (HEK293 [5]): > 59.6 µM (inactive)
EC50 (HEK293 [6]): > 59.6 µM (inactive)

SMILES: Cc1ccc(-n2cc(CNCCCn3cccn3)c(-c3cccc(C)c3)n2)cc1
AC50 (A-375): 24.3 µM (active)

EC50 [7]: 0.531 µM (active)
EC50 [8]: > 92.5 µM (inactive)
EC50 (Mu-type opioid receptor): > 92.5 µM (inactive)
EC50 [9]: > 92.5 µM (inactive)
SMILES: CN(C)C(CNC(=O)Cc1ccc([N+](=O)[O-])cc1)c1ccccc1 (stereo unspecified)

IC50 (Hexokinase-1): > 80 µM (inactive)
IC50 (Hexokinase HKDC1): > 80 µM (inactive)
SMILES: COc1ccc(NC2c3ccccc3C(=O)N2c2ccccc2C)cc1 (stereo unspecified)

IC50 [10]: 1.63 µM (active)
IC50 [11]: 3.99 µM (active)
SMILES: Cc1cc(N2CCCCCC2)nc2ccc(F)cc12
